{"source": "paper PMC12549899", "about": "(Nature Communications, 2025)", "target": "T1, DrOTOP1 I565W (Danio rerio, UniProt Q7ZWK8, I565W)", "T1 construct": "A previously generated codon-optimized full-length DrOTOP1[8]; (UniProt: Q7ZWK8) construct; expressed in transfected cells; host or cells: HEK-293 (CRL-1573, ATCC)", "T1 sequence (Q7ZWK8 1-586 I565W)": "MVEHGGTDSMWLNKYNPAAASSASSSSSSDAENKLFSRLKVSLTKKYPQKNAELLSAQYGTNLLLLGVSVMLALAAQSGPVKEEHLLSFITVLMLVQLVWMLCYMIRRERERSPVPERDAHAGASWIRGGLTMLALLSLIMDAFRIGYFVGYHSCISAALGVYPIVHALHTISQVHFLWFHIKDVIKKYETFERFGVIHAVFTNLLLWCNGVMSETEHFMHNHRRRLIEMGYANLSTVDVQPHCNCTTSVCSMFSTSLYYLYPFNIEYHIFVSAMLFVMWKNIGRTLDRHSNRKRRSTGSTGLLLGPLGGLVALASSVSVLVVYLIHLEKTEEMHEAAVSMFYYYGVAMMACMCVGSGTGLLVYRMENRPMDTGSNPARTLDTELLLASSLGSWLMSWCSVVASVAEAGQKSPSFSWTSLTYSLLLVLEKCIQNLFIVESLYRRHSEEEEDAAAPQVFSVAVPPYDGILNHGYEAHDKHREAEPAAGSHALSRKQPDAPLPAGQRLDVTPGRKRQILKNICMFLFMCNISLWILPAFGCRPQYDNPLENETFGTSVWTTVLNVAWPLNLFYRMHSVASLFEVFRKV", "experiment": "Whole-cell patch-clamp, inhibition of acid-evoked currents, DrOTOP1 I565W (C-domain pocket)", "assay_type": "cell-based, zebrafish (Danio rerio)", "parameters": "key to inhibition of acid-evoked current, single cells: % inhibition = ((I2peak - I1)/I2peak)*100", "conditions": "for LogAbsoluteIC50: concentration in uM", "text": "To experimentally verify whether C11 and C2.2 bind in the C-domain pocket as predicted, we used their docked poses to guide mutagenesis. The predicted interactions for C11 and C2.2 include π-stacking with F342 and Y422, potential H-bonding with Q542, N568, and R572 (Fig. 2J, K and Supplementary Fig. 5A), and hydrophobic packing. We generated single-residue mutants of these and other residues in DrOTOP1 that were expected to disrupt specific molecular interactions or to introduce a bulky tryptophan residue (W) to produce steric hindrance.\nHEK-293 cells (CRL-1573, ATCC) were cultured in DMEM (Thermofisher 11995073) containing 10% fetal bovine serum (Life Technology 16000044) and Penicillin-Streptomycin (100 I.U./mL) and (100 µg/mL), respectively. Cells were transfected with WT DrOTOP1 or mutant DrOTOP1 channels in 35 mm petri dishes, with ~ 500 ng DNA and 2 μL TransIT-LT1 transfection reagent (Mirus Bio Corporation, Cat # MIR2300) following the manufacturer’s protocol. All constructs were subcloned into a pcDNA3.1 vector that adds an N-terminal fusion tag consisting of an octahistidine tag followed by eGFP, a Gly-Thr-Gly-Thr linker and a 3C protease cleavage site ([…]) followed by WT DrOTOP1, WT mOTOP1, WT hOTOP1, or mutated DrOTOP1. Point mutations were generated via In-Fusion Cloning (Takara) using single-stranded DNA primers generated through IDT and sequence confirmed by Sanger sequencing (GeneWiz).\nWhole-cell patch-clamp recording was performed as previously described[6],[22],[25]. Recordings were made with an Axopatch 200B amplifier, digitized with a Digidata 1322a 16-bit data acquisition system, acquired with pClamp 8.2 and analyzed with Clampfit 10 (Molecular Devices). Recordings were sampled at 5 kHz and filtered at 1 kHz. Patch Pipettes with resistance of […] were fabricated from borosilicate glass, and only recordings with a giga-Ohm seal were used in analysis. Membrane potential was held at −80 mV for the duration of recordings. At the beginning of recordings and between, cells were washed with Tyrode’s solution (see below). Once a giga-Ohm seal was reached, cells were lifted and placed in front of microcapillary tubes controlled by a Fast-Step perfusion system (Warner Instruments) so that extracellular solutions could be rapidly exchanged during each experiment.\nStandard Tyrode’s solution consisted of 145 mM NaCl, 5 mM KCl, MgCl2, 2 mM CaCl2, 20 mM D-Glucose, and 10 mM HEPES (for pH 7.4). All other extracellular patch-clamp solutions contained 160 mM NMDG-Cl, 2 mM CaCl2, and the following buffers: 10 mM HEPES (for pH 7.4), 10 mM MES (for pH 6.5-5.5), 10 mM CHES for pH 10, and 10 mM HomoPIPES for (pH 5.0). pH adjusted with HCl. When adding compounds to extracellular solutions, the concentration of DMSO in solution was never higher than 0.3%. The pipette contained intracellular solution made up of 120 mM Cs-aspartate, 15 mM CsCl, 2 mM Mg-ATP, 5 mM EGTA, 2.4 mM CaCl2 (100 nM free Ca^2+), and 10 mM HEPES with a pH of 7.3. All extracellular solution osmolarity was adjusted to 300 mOsm and intracellular osmolarity was adjusted to 290 mOsm.\nAll data are presented as mean ± SEM unless otherwise noted, and each data point represents an independent replicant. Inhibition of compounds was quantified as ((I2peak-I1)/(I2peak))*100, where I1 is the current immediately before wash-off and I2peak is the maximum recovered current (Supplementary Fig. 2). Hill coefficients were determined by the following equation: Y = Bmax*X^h/(Kd^h + X^h). Absolute IC50 was determined by the following equation: Fifty = (Top + Baseline)/2 Y = Bottom + (Top-Bottom)/(1 + ((Top-Bottom)/(Fifty-Bottom) − 1)*(AbsoluteIC50/X)^HillSlope). pH50 curves (Fig. 6G inset) were determined using the following equation: Y = Bottom + (Top-Bottom)/(1 + (EC/X)^HillSlope) where EC = EC50 control. Graphs with electrophysiological data were made in Graphpad Prism 10 (Graphpad Software Inc). […]", "note": "Several values for one entry are separate records, joined by “and”; a condition that tells them apart may be missing. Equal values may be shown once. Read-outs that look alike come from different tables or passages of the source."}
{"smiles": "C=C(C)COc1ccccc1NC(=O)c1nc[nH]c1C", "note": "[C2.2]", "values": [{"measurement": "Hill coefficient", "result": 1.22}, {"measurement": "Shift of IC50 compared with WT", "result": "~ 10 fold"}, {"measurement": "inhibition of acid-evoked current, single cells", "setting": "C2.2 3 uM, Supp. Fig 5G", "result": "6.531 and 5.9632 and 6.805 and 3.704"}, {"measurement": "inhibition at 3 µM", "setting": "C2.2 3 uM, Supp. Fig 5G, read-out: inhibition of acid-evoked current, single cells", "result": 5.54, "unit": "%"}, {"measurement": "inhibition of acid-evoked current, single cells", "setting": "C2.2 10 uM, Supp. Fig 5G", "result": "8.1748 and 9.4295 and 12.133 and 10.612"}, {"measurement": "inhibition at 10 µM", "setting": "C2.2 10 uM, Supp. Fig 5G, read-out: inhibition of acid-evoked current, single cells", "result": 8.99, "unit": "%"}, {"measurement": "inhibition of acid-evoked current, single cells", "setting": "C2.2 30 uM, Supp. Fig 5G", "result": "15.885 and 20.063 and 20.497 and 20.983 and 13.0981 and 19.6998"}, {"measurement": "inhibition at 30 µM", "setting": "C2.2 30 uM, Supp. Fig 5G, read-out: inhibition of acid-evoked current, single cells", "result": 23.3, "unit": "%"}, {"measurement": "inhibition at 100 µM", "setting": "C2.2 100 uM, Supp. Fig 5G, read-out: inhibition of acid-evoked current, single cells", "result": 63.2, "unit": "%"}, {"measurement": "inhibition at 300 µM", "setting": "C2.2 300 uM, Supp. Fig 5G, read-out: inhibition of acid-evoked current, single cells", "result": 78.2, "unit": "%"}, {"measurement": "HillSlope", "setting": "best-fit, Supp. Fig 5G", "result": 1.217}, {"measurement": "IC50", "setting": "best-fit, Top 100, Bottom 0, Supp. Fig 5G, read-out: AbsoluteIC50", "result": 82.9, "unit": "µM"}, {"measurement": "LogAbsoluteIC50", "setting": "best-fit, Supp. Fig 5G", "result": 1.918}, {"measurement": "IC50", "setting": "pH 5.5, read-out: IC50", "result": "82 µM and 82.9 µM"}]}
{"smiles": "O=C(/C(=N\\O)c1ccccc1)c1ccccc1", "note": "[C11, benzil monoxime]", "values": [{"measurement": "Hill coefficient", "result": 1.57}, {"measurement": "Shift of IC50 compared with WT", "result": "~ 2.5 fold"}, {"measurement": "inhibition of acid-evoked current, single cells", "setting": "C11 10 uM, Supp. Fig 5D", "result": "2.087 and 1.672"}, {"measurement": "inhibition at 10 µM", "setting": "C11 10 uM, Supp. Fig 5D, read-out: inhibition of acid-evoked current, single cells", "result": 1.63, "unit": "%"}, {"measurement": "inhibition of acid-evoked current, single cells", "setting": "C11 30 uM, Supp. Fig 5D", "result": "9.463 and 7.048 and 7.021"}, {"measurement": "inhibition at 30 µM", "setting": "C11 30 uM, Supp. Fig 5D, read-out: inhibition of acid-evoked current, single cells", "result": 7.27, "unit": "%"}, {"measurement": "inhibition of acid-evoked current, single cells", "setting": "C11 100 uM, Supp. Fig 5D", "result": "29.7468 and 24.8826 and 21.3974 and 29.1115"}, {"measurement": "inhibition at 100 µM", "setting": "C11 100 uM, Supp. Fig 5D, read-out: inhibition of acid-evoked current, single cells", "result": 29.4, "unit": "%"}, {"measurement": "inhibition of acid-evoked current, single cells", "setting": "C11 200 uM, Supp. Fig 5D", "result": 48.5849}, {"measurement": "inhibition at 200 µM", "setting": "C11 200 uM, Supp. Fig 5D, read-out: inhibition of acid-evoked current, single cells", "result": 42.1, "unit": "%"}, {"measurement": "inhibition of acid-evoked current, single cells", "setting": "C11 300 uM, Supp. Fig 5D", "result": "63.41 and 66.778 and 78.1609 and 62.1622 and 62.7854 and 80.0142 and 64.4878"}, {"measurement": "inhibition at 300 µM", "setting": "C11 300 uM, Supp. Fig 5D, read-out: inhibition of acid-evoked current, single cells", "result": 71.5, "unit": "%"}, {"measurement": "HillSlope", "setting": "best-fit, Supp. Fig 5D", "result": 1.566}, {"measurement": "IC50", "setting": "best-fit, Top 100, Bottom 0, Supp. Fig 5D, read-out: AbsoluteIC50", "result": 190, "unit": "µM"}, {"measurement": "LogAbsoluteIC50", "setting": "best-fit, Supp. Fig 5D", "result": 2.279}, {"measurement": "IC50", "setting": "pH 5.5, read-out: IC50", "result": 190, "unit": "µM"}]}
